“And” between values parts separate entries of the source, which are not always exact repeats. Equal entries are not always repeated.
Tests used:
[1] = test system: phosphorylated AKT (pAKT; pS473) in SET-2 cells; test: Phospho-flow cytometry of pAKT in SET-2 cells; type: cell-based, human; conditions: 5 μM, 16 h
Method: The human megakaryoblastic cell line, SET-2 (ATCC), was maintained in RPMI 1640 supplemented with 20% FBS and incubated for 16 h at 10^6 cells mL^−1 with LP-182 or vehicle (DMSO; dimethyl sulfoxide), then washed in ice-cold PBS, and collected for flow cytometry analysis. Single-cell suspensions of mouse spleen were prepared from MPL^W515L MF mice (below) in RPMI 1640 supplemented with 5% FCS. Red blood cells were lysed by ammonium chloride-mediated red cell lysis (RCL) buffer and passed through a nylon mesh, and then cells were counted. For intracellular phospho-protein staining, SET-2 or spleen cells were fixed and then permeabilized using BD Phospho-flow fixation buffer and Perm-Buffer III (BD biosciences) according to the manufacturer’s protocol. Intracellular phospho-protein staining was performed using fluorochrome-conjugated antibodies, pAKT (pS473)-Alexa Fluor 647 (MB89-61) or pERK1/2 (pT202/pY204)-Alexa Fluor 647 (20 A). All phospho-flow antibodies were purchased from BD Biosciences. […] Flow cytometry was performed on a FACS Fortessa (Becton, Dickinson and Co.) using FACSDiVa software, and data analyzed using FlowJo software (Tree Star). […]

[2] = Rat mesenteric lymph duct cannulation model: lymphatic fluid and blood; type: in vivo; conditions: anesthetized rats; for Lymphatic fluid Concentration (ng/mL or ng/g): individual animals
Method: A rat mesenteric lymph duct cannulation model was used to collect and quantify LP-182 in lymphatic fluid, blood, and lymphatic proteo-lipid sub-fractions similar to previously described methods[37],[40]. Male Sprague-Dawley rats (n = 7) were anesthetized by isoflurane (Piramel, PA) and placed on a heated pad maintained at 37 °C using a Kent Scientific (Torrington, CT) low flow vaporizer and SomnoSuite for pulse oximetry and thermal regulation, respectively. The carotid artery, mesenteric lymph duct and duodenum were cannulated, and normal saline was continuously infused into the duodenum at 1.7 mL h^−1 using a constant rate infusion pump. After approx. 0.5 h, 50 mg kg^−1 of LP-182 solubilized in ~1.7 mL of either Maisine CC or a mixture of 93% Maisine CC and 7% Labrasol (Gattefossé; Saint-Priest, France) was infused over 1 h into the duodenum, followed by normal saline (as above) for the duration of the experiment. Hourly fractions of lymphatic fluid were collected continually (rate of ~0.5–1.2 mL h^−1) for approx. 6 h, while arterial blood samples (10–20 µL) were collected once per hour and stored at −20 °C for future analysis. Lymphatic fluid time course samples were either frozen or pooled for subsequent fractionation by ultracentrifugation to isolate proteo-lipid sub-fractions similar to previously described methods. Separation of chylomicrons was achieved by layering lymphatic fluid under PBS (Gibco; ThermoFisher Scientific) in a polyallomer ultracentrifuge tube (Beckman, CA), and centrifugation in a L8-70M ultracentrifuge (Beckman, CA) at 202,048 x g using a SW40Ti rotor (Beckman, CA) for 95 min at 15 °C. Following centrifugation, the semi-solid chylomicron layer at the top of the centrifuge tube was recovered and stored at −20 °C for future analysis. After replacing the void volume with PBS, the bottom layer underwent further ultracentrifugation for an additional 16 h as above, at which time a viscous dispersion of VLDL was collected from the top of the tube, and an aqueous fraction containing LDL/HDL from the bottom, which were stored at −20 °C for future analysis. All lymphatic fluid, blood, and fractionated chylomicron, VLDL, and LDL/HDL samples were analyzed by mass spectrometry for quantitation of LP-182 as outlined below. Relative LP-182 in lymphatic fluid proteo-lipid sub-fractions was calculated as the amount of compound in a specified fraction as a percentage of the cumulative amount of compound measured in all fractions. […] Relative LP-182 in blood was calculated as the amount of compound measured in a specified temporal fraction of blood as a percentage of the amount of compound measured in an equal volume of the same temporal fraction of lymphatic fluid, with the average calculated from all fractions. Data was generated from n = 2 individual animals sampled per time point per study condition due to limitations in blood volume collection.
Standards and compound extraction from biological fluids or tissues was performed using similar protocols, all resulting in recoveries ≥90%. Briefly, acetonitrile was added to a final concentration of 60–80% to bone marrow, whole blood, plasma, lymphatic fluid, lymphatic proteo-lipid sub-fractions, or mesenteric lymph node samples for compound extraction. Extraction was performed by shaking and/or bead rupture using a Precellys Evolution tissue homogenizer (Bertin Technologies SAS). […] Optimization of MS and MS/MS parameters for MRM quantitation and maximum sensitivity of individual compounds was performed using SCIEX Analyst software (AB Sciex). […] All LC-MS/MS acquisitions were performed with an independent standard curve for each group of analytes and for each individual run. All solvents utilized were of Optima LC-MS Grade (Fisher Scientific). Data was generated from n ≥ 2 individual animals per compound per study condition or dose.

[3] = 1 h intra-duodenal infusion 50 mg kg^−1, 6 h

For O=C(NOCCOCCOCCOCCC(=O)N1CCN(c2cnc3ccc(-c4cnc(Cl)c(NS(=O)(=O)c5ccc(F)cc5)c4)cc3n2)CC1)c1ccc(F)c(F)c1Nc1ccc(I)cc1F [LP-182, N-(2-(2-(2-(3-(4-(7-(6-chloro-5-((4-fluorophenyl)sulfonamido)pyridin-3-yl)quinoxalin-2-yl)piperazin-1-yl)-3-oxopropoxy)ethoxy)ethoxy)ethoxy)-3,4-difluoro-2-((2-fluoro-4-iodophenyl)amino)benzamide], the “decrease of downstream activation of AKT” value [1] was ~ 50%, the “Lymphatic fluid Concentration (ng/mL or ng/g)” value (“Lymphatic fluid Concentration” for short) ([2]; 1 h intra-duodenal infusion 50 mg kg^−1, 0 h) was 0 ng/mL or ng/g and the “Lymphatic fluid Concentration” value ([2]; 1 h intra-duodenal infusion 50 mg kg^−1, 1 h) was 1075.78 ng/mL or ng/g and 810.78 ng/mL or ng/g and 1128.99 ng/mL or ng/g and 810.9 ng/mL or ng/g and 526.14 ng/mL or ng/g and 195.59 ng/mL or ng/g and 1185.4 ng/mL or ng/g. The “Lymphatic fluid Concentration” value ([2]; 1 h intra-duodenal infusion 50 mg kg^−1, 2 h) was 15938.1 ng/mL or ng/g and 4987.49 ng/mL or ng/g and 11915.5 ng/mL or ng/g and 8277.36 ng/mL or ng/g and 1691.13 ng/mL or ng/g and 3232.84 ng/mL or ng/g and 9168 ng/mL or ng/g, the “Lymphatic fluid Concentration” value ([2]; 1 h intra-duodenal infusion 50 mg kg^−1, 3 h) was 11950.5 ng/mL or ng/g and 2555.63 ng/mL or ng/g and 6787.62 ng/mL or ng/g and 11961.6 ng/mL or ng/g and 3014.24 ng/mL or ng/g and 1175.13 ng/mL or ng/g and 13326 ng/mL or ng/g and the “Lymphatic fluid Concentration” value ([2]; 1 h intra-duodenal infusion 50 mg kg^−1, 4 h) was 4407.66 ng/mL or ng/g and 5844.35 ng/mL or ng/g and 3822.74 ng/mL or ng/g and 8176.6 ng/mL or ng/g and 1916.83 ng/mL or ng/g and 592.35 ng/mL or ng/g and 6976.86 ng/mL or ng/g. For the same compound, the “Lymphatic fluid Concentration” value ([2]; 1 h intra-duodenal infusion 50 mg kg^−1, 5 h) was 4529.02 ng/mL or ng/g and 3482.33 ng/mL or ng/g and 3674.05 ng/mL or ng/g and 7088.41 ng/mL or ng/g and 2106.37 ng/mL or ng/g and 169.31 ng/mL or ng/g and 7019.83 ng/mL or ng/g, the “level in blood as % of total compound measured among each set of temporal fractions” value [2, 3] was 1.7% and the “Lymphatic fluid Concentration” value [2, 3] was 2432.36 ng/mL or ng/g and 2631.07 ng/mL or ng/g and 1756.69 ng/mL or ng/g and 8133.27 ng/mL or ng/g and 2059.99 ng/mL or ng/g and 330.98 ng/mL or ng/g and 2839 ng/mL or ng/g.

— article PMC9386018, “A lymphatic-absorbed multi-targeted kinase inhibitor for myelofibrosis therapy” (Nature Communications, 2022)
